Results on 2 molecules are retold here after patent publication US20110318412A1, “LOW DOSE DOXEPIN FORMULATIONS, INCLUDING BUCCAL, SUBLINGUAL AND FASTMELT FORMULATIONS, AND USES OF THE SAME TO TREAT INSOMNIA” (Somaxon Pharmaceuticals, Inc., priority 2006, published 2011).

Data set [1] is described as follows: Doxepin plasma concentration after a 3 mg capsule in humans. It counts as in vivo, human. Here is the method: An estimate of the doxepin plasma concentrations associated with the initiation of sleep was obtained by combining data from multiple studies.
In a separate study, in humans averaging about 70 kg, receiving a 3 mg capsule comprising doxepin hydrochloride, lactose monohydrate fast-flow, sodium lauryl sulfate and magnesium stearate, the average plasma concentration at 60 minutes was approximately 0.1 ng/mL.
Without being limited, it is believed that the doxepin plasma concentration achieved approximately 1 hour after a 3 mg dose is sufficient for sleep initiation. The conclusion is that doxepin plasma concentrations of 0.1 ng/mL or greater were associated with initiation of sleep.

For data set [2] the following is noted: Wu-Benet, 2005; cited from earlier work.
In data set [3] the test system is human subjects. The data set is described as follows: Sleep onset after a 3 mg doxepin hydrochloride capsule in human subjects. It counts as in vivo. The settings on record: human subjects averaging about 70 kg.
Data set [4] is described as follows: Measured bioavailability used for the simulation. The settings on record: in vivo.
Data set [5] can be described thus: Measured physicochemical parameters (logP, pKa) used for the simulation.

Structures can show the parent of a compound that is named as a salt.

Take `CN(C)CCC=C1c2ccccc2COc2ccccc21` (mixture of isomers) [doxepin hydrochloride]: the concentration at 60 min in data set [1] (human, plasma, oral, humans averaging about 70 kg, 3 mg capsule, separate study) is ~0.1 ng/mL. Besides, in data set [2], the “Biopharmaceutic Classification System class” value is given as “Class One” and the “solubility (Biopharmaceutic Classification System)” value is on record as “high solubility”. Moreover, the “sleep onset compared with a placebo dose” value in data set [3] (3 mg capsule) is “significantly earlier than with a placebo dose”. Also, the “time of sleep onset after dosing” value in data set [3] (3 mg capsule (doxepin hydrochloride, lactose monohydrate fast-flow, sodium lauryl sulfate, magnesium stearate)) is listed as “about 60 minutes”.
Consider `CN(C)CCC=C1c2ccccc2COc2ccccc21` (mixture of isomers) [doxepin], for which the bioavailability in data set [4] was 29%. In data set [1] (estimate from combining data from multiple studies), the “doxepin plasma concentration associated with initiation of sleep” value is ≥ 0.1 ng/mL. In data set [5], the logP is given as 4.13 and the pKa was 8.96.

In general, bioavailability refers to dose-corrected exposure relative to a reference, in per cent. Read a high bioavailability as good availability. As usually defined, the logP is a log measure of how a compound divides between an organic and an aqueous phase. The low end stands for lower lipophilicity, the high end for higher lipophilicity. In general, pKa refers to the negative logarithm of the acid dissociation constant. Read a low pKa as a stronger acid or weaker base.
